These compounds were tested on MCH receptors (assay: MCH receptor activity class (method not given)). Details: class by percent of control at 10^-7 M or IC50.

Row | Compound | class
1 | CN(C)c1cc(N[C@H]2CC[C@@H](CNC(=O)c3cn(Cc4ccccc4)c4ccccc34)CC2)nc2ccccc12 [compound 805] | 3 (Class 3 The value of percent of control at 10^−7 M was more than 60% or the value of IC50 was more than 200 nM.)
2 | CN(C)c1cc(N[C@H]2CC[C@@H](CNC(=O)CC3=CCCCC3)CC2)nc2ccccc12 [compound 806] | 3 (Class 3 The value of percent of control at 10^−7 M was more than 60% or the value of IC50 was more than 200 nM.)
3 | CN(C)c1cc(N[C@H]2CC[C@@H](CNC(=O)Cc3ccccc3OC(F)(F)F)CC2)nc2ccccc12 [compound 808] | 3 (Class 3 The value of percent of control at 10^−7 M was more than 60% or the value of IC50 was more than 200 nM.)
4 | Cc1cc(C(=O)NC[C@H]2CC[C@@H](Nc3cc(N(C)C)c4ccccc4n3)CC2)cc(C)c1OCc1ccccc1 [compound 809] | 3 (Class 3 The value of percent of control at 10^−7 M was more than 60% or the value of IC50 was more than 200 nM.)
5 | CN(C)c1cc(N[C@H]2CC[C@@H](CNC(=O)C3c4ccccc4Oc4ccccc43)CC2)nc2ccccc12 [compound 810] | 3 (Class 3 The value of percent of control at 10^−7 M was more than 60% or the value of IC50 was more than 200 nM.)
6 | CN(C)c1cc(N[C@H]2CC[C@@H](CNC(=O)Cc3csc4ccccc34)CC2)nc2ccccc12 [compound 811] | 3 (Class 3 The value of percent of control at 10^−7 M was more than 60% or the value of IC50 was more than 200 nM.)
7 | CN(C)c1ccnc(N[C@H]2CC[C@@H](NC(=O)c3ccc(Br)s3)CC2)n1 [compound 812] | 3 (Class 3 The value of percent of control at 10^−7 M was more than 60% or the value of IC50 was more than 200 nM.)
8 | CN(C)c1ccnc(N[C@H]2CC[C@@H](NC(=O)Cc3c(Cl)ccc(Cl)c3Cl)CC2)n1 [compound 813] | 3 (Class 3 The value of percent of control at 10^−7 M was more than 60% or the value of IC50 was more than 200 nM.)
9 | CN(C)c1ccnc(N[C@H]2CC[C@@H](NC(=O)Cc3ccc(F)cc3Cl)CC2)n1 [compound 814] | 3 (Class 3 The value of percent of control at 10^−7 M was more than 60% or the value of IC50 was more than 200 nM.)
10 | CN(C)c1ccnc(N[C@H]2CC[C@@H](NC(=O)c3ccc(-c4ccc(Cl)cc4[N+](=O)[O-])o3)CC2)n1 [compound 815, 5-(4-chloro-2-nitrophenyl)-N-(cis-4-{[4-(dimethylamino)pyrimidin-2-yl]amino}cyclohexyl)-2-furamide] | 1 (Class 1: The value of percent of control at 10^−7 M was less than 40% or the value of IC50 was less than 50 nM.)
11 | CN(C)c1ccnc(N[C@H]2CC[C@@H](NC(=O)c3ccc(Cl)s3)CC2)n1 [compound 816] | 3 (Class 3 The value of percent of control at 10^−7 M was more than 60% or the value of IC50 was more than 200 nM.)
12 | CN(C)c1ccnc(N[C@H]2CC[C@@H](NC(=O)CCc3ccccc3O)CC2)n1 [compound 818] | 3 (Class 3 The value of percent of control at 10^−7 M was more than 60% or the value of IC50 was more than 200 nM.)
13 | CN(C)c1ccnc(N[C@H]2CC[C@@H](NC(=O)c3ccc(I)o3)CC2)n1 [compound 819, N-(cis-4-{[4-(dimethylamino)pyrimidin-2-yl]amino}cyclohexyl)-5-iodo-2-furamide] | 2 (Class 2: The value of percent of control at 10^−7 M was from 40% to 60% or the value of IC′50 was from 50 nM to 200 nM.)
14 | CN(C)c1ccnc(N[C@H]2CC[C@@H](NC(=O)Cc3ccccc3I)CC2)n1 [compound 820] | 3 (Class 3 The value of percent of control at 10^−7 M was more than 60% or the value of IC50 was more than 200 nM.)
15 | COc1ccc2[nH]c(C)c(CC(=O)N[C@H]3CC[C@@H](Nc4nccc(N(C)C)n4)CC3)c2c1 [compound 821] | 3 (Class 3 The value of percent of control at 10^−7 M was more than 60% or the value of IC50 was more than 200 nM.)
16 | CN(C)c1ccnc(N[C@H]2CC[C@@H](NC(=O)/C=C/c3cccc([N+](=O)[O-])c3)CC2)n1 [compound 822] | 3 (Class 3 The value of percent of control at 10^−7 M was more than 60% or the value of IC50 was more than 200 nM.)
17 | CN(C)c1ccnc(N[C@H]2CC[C@@H](NC(=O)c3ccccc3Cc3ccccc3)CC2)n1 [compound 824] | 3 (Class 3 The value of percent of control at 10^−7 M was more than 60% or the value of IC50 was more than 200 nM.)
18 | CN(C)c1ccnc(N[C@H]2CC[C@@H](NC(=O)C(c3ccc(Cl)cc3)c3ccc(Cl)cc3)CC2)n1 [compound 825] | 3 (Class 3 The value of percent of control at 10^−7 M was more than 60% or the value of IC50 was more than 200 nM.)
19 | Cc1ccc(-c2ccc(C(=O)N[C@H]3CC[C@@H](Nc4nccc(N(C)C)n4)CC3)o2)c([N+](=O)[O-])c1 [compound 826, N-(cis-4-{[4-(dimethylamino)pyrimidin-2-yl]amino}cyclohexyl)-5-(4-methyl-2-nitrophenyl)-2-furamide] | 2 (Class 2: The value of percent of control at 10^−7 M was from 40% to 60% or the value of IC′50 was from 50 nM to 200 nM.)
20 | CN(C)c1ccnc(N[C@H]2CC[C@@H](NC(=O)c3ccc([N+](=O)[O-])s3)CC2)n1 [compound 827, N-(cis-4-{[4-(dimethylamino)pyrimidin-2-yl]amino}cyclohexyl)-5-nitrothiophene-2-carboxamide] | 2 (Class 2: The value of percent of control at 10^−7 M was from 40% to 60% or the value of IC′50 was from 50 nM to 200 nM.)
21 | Cc1cc(C(=O)N[C@H]2CC[C@@H](Nc3nccc(N(C)C)n3)CC2)ccc1[N+](=O)[O-] [compound 828, N-(cis-4-{[4-(dimethylamino)pyrimidin-2-yl]amino}cyclohexyl)-3-methyl-4-nitrobenzamide] | 2 (Class 2: The value of percent of control at 10^−7 M was from 40% to 60% or the value of IC′50 was from 50 nM to 200 nM.)
22 | COc1cc(C(=O)N[C@H]2CC[C@@H](Nc3nccc(N(C)C)n3)CC2)ccc1[N+](=O)[O-] [compound 829, N-(cis-4-{[4-(dimethylamino)pyrimidin-2-yl]amino}cyclohexyl)-3-methoxy-4-nitrobenzamide] | 1 (Class 1: The value of percent of control at 10^−7 M was less than 40% or the value of IC50 was less than 50 nM.)
23 | CN(C)c1ccnc(N[C@H]2CC[C@@H](NC(=O)c3cn(Cc4ccccc4)c4ccccc34)CC2)n1 [compound 830, 1-benzyl-N-(cis-4-{[4-(dimethylamino)pyrimidin-2-yl]amino}cyclohexyl)-1H-indole-3-carboxamide] | 2 (Class 2: The value of percent of control at 10^−7 M was from 40% to 60% or the value of IC′50 was from 50 nM to 200 nM.)
24 | CC(=O)c1cccc(C(=O)N[C@H]2CC[C@@H](Nc3nccc(N(C)C)n3)CC2)c1 [compound 831] | 2 (Class 2: The value of percent of control at 10^−7 M was from 40% to 60% or the value of IC′50 was from 50 nM to 200 nM.)
25 | CN(C)c1ccnc(N[C@H]2CC[C@@H](NC(=O)C3CCCC[C@H]3C(=O)c3ccccc3)CC2)n1 (some centres unmarked) [compound 832] | 3 (Class 3 The value of percent of control at 10^−7 M was more than 60% or the value of IC50 was more than 200 nM.)
26 | CN(C)c1ccnc(N[C@H]2CC[C@@H](NC(=O)c3ccc(Br)o3)CC2)n1 [compound 833, 5-bromo-N-(cis-4-{[4-(dimethylamino)pyrimidin-2-yl]amino}cyclohexyl)-2-furamide] | 1 (Class 1: The value of percent of control at 10^−7 M was less than 40% or the value of IC50 was less than 50 nM.)

From patent publication US20050197350A1, “Novel quinoline, tetrahydroquinazoline, and pyrimidine derivatives and methods of treatment related to the use thereof” (TAISHO PHARMACEUTICAL CO., LTD., priority 2003, published 2005)
